Data from the NIST ThermoML archive (doi:10.1016/j.jct.2009.06.022).
± gives the expanded uncertainty stated by the source.

How the values were obtained:
[1] = Molar enthalpy of transition or fusion; conditions: Crystal; DSC
[2] = Crystal; DTA
[3] = molar enthalpy of vaporization or sublimation; conditions: 298.15 K; Crystal; Static calorimetry

## O=c1cc(-c2ccccc2)oc2ccccc12 [flavone]
[1]
  Molar enthalpy of transition or fusion: 20.3 ± 0.51 kJ/mol
[2]
  Normal melting temperature: 96.74 ± 0.44 °C
[3]
  molar enthalpy: 108 ± 3.4 kJ/mol

## O=C1CC(c2ccccc2)Oc2ccccc21 (stereo unspecified) [2,3-dihydroflavone]
[1]
  Molar enthalpy of transition or fusion: 21 ± 0.58 kJ/mol
[2]
  Normal melting temperature: 76.34 ± 0.44 °C
[3]
  molar enthalpy: 107 ± 4.6 kJ/mol
